Data from the NIST ThermoML archive (doi:10.1016/j.jct.2008.12.014).
± gives the expanded uncertainty stated by the source.

Conditions: Liquid, Vibrating tube method

CC(C)O [propan-2-ol]
Conditions	mass density [kg/m3]
280.21 K, 117.9 kPa	797.61 ± 0.15
280.21 K, 439.6 kPa	797.89 ± 0.15
280.21 K, 938.7 kPa	798.29 ± 0.16
280.21 K, 1328.4 kPa	798.62 ± 0.16
280.21 K, 1656.6 kPa	798.89 ± 0.16
280.21 K, 1944.9 kPa	799.14 ± 0.17
280.21 K, 2440.6 kPa	799.56 ± 0.17
280.21 K, 2850.6 kPa	799.88 ± 0.18
280.21 K, 3198 kPa	800.17 ± 0.18
280.21 K, 3679.1 kPa	800.56 ± 0.18
280.21 K, 4071.1 kPa	800.9 ± 0.19
280.21 K, 4437.7 kPa	801.19 ± 0.19
280.21 K, 4832.6 kPa	801.5 ± 0.19
280.21 K, 5182.1 kPa	801.8 ± 0.2
280.21 K, 5559.1 kPa	802.1 ± 0.2
280.21 K, 5910 kPa	802.39 ± 0.2
280.21 K, 6334.9 kPa	802.73 ± 0.21
280.21 K, 6750.9 kPa	803.06 ± 0.21
280.21 K, 7592 kPa	803.74 ± 0.22
280.21 K, 7999 kPa	804.07 ± 0.22
280.21 K, 8329 kPa	804.33 ± 0.23
280.21 K, 8817 kPa	804.7 ± 0.23
280.21 K, 9350.6 kPa	805.11 ± 0.24
280.21 K, 9658.5 kPa	805.38 ± 0.24
281.21 K, 7166.5 kPa	803.39 ± 0.22
300.09 K, 186.7 kPa	780.22 ± 0.16
300.09 K, 610.5 kPa	780.62 ± 0.16
300.09 K, 953.4 kPa	780.94 ± 0.17
300.09 K, 1339.5 kPa	781.31 ± 0.17
300.09 K, 1722.1 kPa	781.66 ± 0.18
300.09 K, 2044.8 kPa	781.96 ± 0.18
300.09 K, 2446.4 kPa	782.34 ± 0.18
300.09 K, 2834.6 kPa	782.7 ± 0.19
300.09 K, 3224.9 kPa	783.06 ± 0.19
300.09 K, 3671.1 kPa	783.47 ± 0.2
300.09 K, 4074.1 kPa	783.84 ± 0.2
300.09 K, 4362.5 kPa	784.11 ± 0.2
300.09 K, 4771.8 kPa	784.48 ± 0.21
300.09 K, 5226.5 kPa	784.89 ± 0.21
300.09 K, 5579.2 kPa	785.21 ± 0.21
300.09 K, 6001.6 kPa	785.59 ± 0.22
300.09 K, 6427.2 kPa	785.98 ± 0.22
300.09 K, 6780.3 kPa	786.29 ± 0.23
300.09 K, 7214.7 kPa	786.68 ± 0.23
300.09 K, 7629.9 kPa	787.05 ± 0.23
300.09 K, 8020.3 kPa	787.4 ± 0.24
300.09 K, 8417.5 kPa	787.75 ± 0.24
300.09 K, 8805.7 kPa	788.1 ± 0.25
300.09 K, 9212.9 kPa	788.45 ± 0.25
300.09 K, 9621.5 kPa	788.81 ± 0.25
325.12 K, 202.7 kPa	757.05 ± 0.17
325.12 K, 609.4 kPa	757.49 ± 0.18
325.12 K, 960 kPa	757.87 ± 0.18
325.12 K, 1253.9 kPa	758.21 ± 0.18
325.12 K, 1638.8 kPa	758.63 ± 0.19
325.12 K, 2021 kPa	759.06 ± 0.19
325.12 K, 2328.8 kPa	759.39 ± 0.2
325.12 K, 3014.9 kPa	760.15 ± 0.2
325.12 K, 3321.4 kPa	760.48 ± 0.21
325.12 K, 3659.4 kPa	760.85 ± 0.21
325.12 K, 4004.1 kPa	761.22 ± 0.21
325.12 K, 4399.2 kPa	761.65 ± 0.22
325.12 K, 4691.2 kPa	761.97 ± 0.22
325.12 K, 5010.7 kPa	762.32 ± 0.23
325.12 K, 5383.4 kPa	762.71 ± 0.23
325.12 K, 5730.5 kPa	763.08 ± 0.23
325.12 K, 6143.6 kPa	763.52 ± 0.24
325.12 K, 6525.6 kPa	763.91 ± 0.24
325.12 K, 6903.2 kPa	764.31 ± 0.25
325.12 K, 7293.8 kPa	764.72 ± 0.25
325.12 K, 7661.9 kPa	765.11 ± 0.25
325.12 K, 7918.6 kPa	765.38 ± 0.26
325.12 K, 8254.4 kPa	765.72 ± 0.26
325.12 K, 8755.5 kPa	766.24 ± 0.27
325.15 K, 2655.8 kPa	759.75 ± 0.2
